Legend:
JAK3 = target: T1, JAK3 (Homo sapiens, UniProt P52333); assay: Kinase competition binding assay (Kd, qPCR readout), JAK3; conditions: for Kd: Kd class, JAK3, read-out: JAK3 Activity Level; for RCK:JAK3 selectivity ratio: ratio Kd (JAK3): Kd (RCK)
T1 construct: made in house; host or cells: E. coli BL21-derived host (T7 phage) or HEK-293
Summary of the method: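 Kd values were derived from 11-point, 3-fold compound series at 1% DMSO, usually topping at 30,000 nM, with retesting from a lower top when under 0.5 nM. It competed with bead-immobilized ligand for 1 h at room temperature, and the captured kinase was measured by qPCR after elution.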

JAK2 = target: T2, JAK2 (Homo sapiens, UniProt O60674); assay: Kinase competition binding assay (Kd, qPCR readout), JAK2; conditions: for Kd: Kd class, JAK2, read-out: JAK2 Activity Level; for RCK:JAK2 selectivity ratio: ratio Kd (JAK2): Kd(RCK)
T2 construct: made in house; host or cells: E. coli BL21-derived host (T7 phage) or HEK-293
Summary of the method: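 Competition binding: DNA-tagged kinase (T7 phage or HEK-293-expressed), immobilized biotinylated ligand beads and compound in SeaBlock/PBS/Tween/DTT buffer, 1 hour at room temperature; bound kinase eluted and quantified by qPCR. Kd from 11-point 3-fold dilution, top 30,000 nM typically, final DMSO 1%.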

[1] = target: T3, kinase domain protein of RC kinase (RCK) (Homo sapiens, UniProt Q56UN5); assay: Kinase competition binding assay (Kd, qPCR readout), RC kinase; conditions: Kd class, read-out: RCK Activity Level
T3 construct: made in house; host or cells: E. coli BL21-derived host (T7 phage) or HEK-293
T3 sequence (Q56UN5 1061-1324 limits assumed): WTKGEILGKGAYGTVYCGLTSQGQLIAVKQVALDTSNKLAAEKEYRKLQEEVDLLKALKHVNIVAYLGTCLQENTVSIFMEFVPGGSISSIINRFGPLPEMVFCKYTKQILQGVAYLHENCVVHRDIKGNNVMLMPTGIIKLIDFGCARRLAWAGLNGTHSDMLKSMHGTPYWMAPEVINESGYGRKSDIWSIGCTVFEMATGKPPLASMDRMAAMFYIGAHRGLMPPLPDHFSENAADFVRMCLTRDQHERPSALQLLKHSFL
Summary of the method: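 Competition binding: DNA-tagged kinase (T7 phage or HEK-293-expressed) plus immobilized biotinylated ligand beads and compound, 1 h at room temperature, 1% DMSO. Bead-bound kinase eluted and quantified by qPCR. Kd from 11-point 3-fold dilution, top 30,000 nM, retested lower if below 0.5 nM.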

T2 sequence (O60674 840-1132 limits assumed): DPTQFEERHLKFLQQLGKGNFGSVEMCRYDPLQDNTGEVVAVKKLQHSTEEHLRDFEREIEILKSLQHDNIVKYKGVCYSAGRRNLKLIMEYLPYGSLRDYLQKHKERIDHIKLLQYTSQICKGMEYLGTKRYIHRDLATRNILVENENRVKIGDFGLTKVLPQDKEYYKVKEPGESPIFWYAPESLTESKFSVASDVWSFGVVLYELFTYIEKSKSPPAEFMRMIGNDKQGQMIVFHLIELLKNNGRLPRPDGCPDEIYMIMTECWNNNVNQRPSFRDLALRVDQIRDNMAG
T1 sequence (P52333 811-1124 limits assumed): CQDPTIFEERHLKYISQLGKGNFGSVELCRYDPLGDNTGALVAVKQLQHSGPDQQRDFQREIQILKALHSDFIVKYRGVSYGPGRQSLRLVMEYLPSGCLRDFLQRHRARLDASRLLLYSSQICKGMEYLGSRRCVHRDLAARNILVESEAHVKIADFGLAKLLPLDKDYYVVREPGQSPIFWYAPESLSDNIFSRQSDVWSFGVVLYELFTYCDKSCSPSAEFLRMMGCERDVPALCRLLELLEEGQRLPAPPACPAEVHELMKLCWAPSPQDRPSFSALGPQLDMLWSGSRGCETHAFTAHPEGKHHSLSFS

Compound: Cc1cc(CNc2[nH]nc(Nc3ccc(N4CCC(N5CCC(C)CC5)CC4)cc3)c2C(N)=O)cc(C)c1O [Compound 23, 5-((4-hydroxy-3,5-dimethylbenzyl)amino)-3-((4-(4-methyl-[1,4′-bipiperidin]-1′-yl)phenyl)amino)-1H-pyrazole-4-carboxamide]
- Kd (JAK3): > 1 µM
- RCK:JAK3 selectivity ratio (JAK3): B (B represents 10<Kd (JAK3): Kd (RCK)<100)
- Kd (JAK2): > 1 µM
- RCK:JAK2 selectivity ratio (JAK2): B (B represents 10<Kd(JAK2): Kd (RCK)<100)
- Kd [1]: < 0.05 µM

Compound: Cc1cc(Nc2n[nH]c(NCc3cc(C)c(O)c(C)c3)c2C(N)=O)cnc1N1CCN(C)CC1 [Compound 14, 5-((4-hydroxy-3,5-dimethylbenzyl)amino)-3-((5-methyl-6-(4-methylpiperazin-1-yl)pyridin-3-yl)amino)-1H-pyrazole-4-carboxamide]
- Kd (JAK3): > 1 µM
- RCK:JAK3 selectivity ratio (JAK3): B (B represents 10<Kd (JAK3): Kd (RCK)<100)
- Kd (JAK2): > 1 µM
- RCK:JAK2 selectivity ratio (JAK2): C (C represents 1<Kd (JAK2): Kd (RCK)<10)
- Kd [1]: > 1 µM

Compound: COc1ccc(C(=O)Nc2ccc(Nc3n[nH]c(NCc4cc(C)c(O)c(C)c4)c3C(N)=O)cc2)cc1 [Compound 57, 5-((4-hydroxy-3,5-dimethylbenzyl)amino)-3-((4-(4-methoxybenzamido)phenyl)amino)-1H-pyrazole-4-carboxamide]
- Kd (JAK3): > 1 µM
- RCK:JAK3 selectivity ratio (JAK3): A (A represents Kd (JAK3): Kd (RCK)>100)
- Kd (JAK2): > 1 µM
- RCK:JAK2 selectivity ratio (JAK2): A (A represents Kd (JAK2): Kd (RCK)>100)
- Kd [1]: 0.05 to 0.1 µM

Compound: NC(=O)c1c(Nc2ccc(F)cc2)n[nH]c1NCc1ccc(O)cc1 [reference compound]
- Kd (JAK3): < 0.05 µM
- RCK:JAK3 selectivity ratio (JAK3): D (D represents Kd (JAK3): Kd(RCK)<1)
- Kd (JAK2): < 0.05 µM
- RCK:JAK2 selectivity ratio (JAK2): D (D represents Kd(JAK2): Kd (RCK)<1)
- Kd [1]: < 0.05 µM

Compound: Cc1cc(CNc2[nH]nc(Nc3ccc(-n4cccc4)cc3)c2C(N)=O)cc(C)c1O [Compound 6, 3-((4-(1H-pyrrol-1-yl)phenyl)amino)-5-((4-hydroxy-3,5-dimethylbenzyl)amino)-1H-pyrazole-4-carboxamide]
- Kd (JAK3): > 1 µM
- RCK:JAK3 selectivity ratio (JAK3): A (A represents Kd (JAK3): Kd (RCK)>100)
- Kd (JAK2): > 1 µM
- RCK:JAK2 selectivity ratio (JAK2): A (A represents Kd (JAK2): Kd (RCK)>100)
- Kd [1]: < 0.05 µM

Compound: Cc1cc(CNc2[nH]nc(Nc3ccc(NC(=O)c4ccc(C(F)(F)F)cc4)cc3)c2C(N)=O)cc(C)c1O [Compound 62, 5-((4-hydroxy-3,5-dimethylbenzyl)amino)-3-((4-(4-(trifluoromethyl)benzamido)phenyl)amino)-1H-pyrazole-4-carboxamide]
- Kd (JAK3): > 1 µM
- RCK:JAK3 selectivity ratio (JAK3): B (B represents 10<Kd (JAK3): Kd (RCK)<100)
- Kd (JAK2): > 1 µM
- RCK:JAK2 selectivity ratio (JAK2): B (B represents 10<Kd(JAK2): Kd (RCK)<100)
- Kd [1]: 0.1 to 1 µM

Compound: Cc1cc(CNc2[nH]nc(Nc3ccc(CN4CCCCC4)cc3)c2C(N)=O)cc(C)c1O [Compound 45, 5-((4-hydroxy-3,5-dimethylbenzyl)amino)-3-((4-(piperidin-1-ylmethyl)phenyl)amino)-1H-pyrazole-4-carboxamide]
- Kd (JAK3): 0.1 to 1 µM
- RCK:JAK3 selectivity ratio (JAK3): B (B represents 10<Kd (JAK3): Kd (RCK)<100)
- Kd (JAK2): 0.1 to 1 µM
- RCK:JAK2 selectivity ratio (JAK2): C (C represents 1<Kd (JAK2): Kd (RCK)<10)
- Kd [1]: < 0.05 µM

Compound: NC(=O)c1c(Nc2ccc(N3CCS(=O)(=O)CC3)cc2)n[nH]c1NCc1ccc(O)cc1 [reference compound]
- Kd (JAK3): < 0.05 µM
- RCK:JAK3 selectivity ratio (JAK3): D (D represents Kd (JAK3): Kd(RCK)<1)
- Kd (JAK2): < 0.05 µM
- RCK:JAK2 selectivity ratio (JAK2): D (D represents Kd(JAK2): Kd (RCK)<1)
- Kd [1]: < 0.05 µM

Compound: COc1cccc(C(=O)Nc2ccc(Nc3n[nH]c(NCc4ccc(O)cc4)c3C(N)=O)cc2)c1 [reference compound]
- Kd (JAK3): < 0.05 µM
- RCK:JAK3 selectivity ratio (JAK3): B (B represents 10<Kd (JAK3): Kd (RCK)<100)
- Kd (JAK2): < 0.05 µM
- RCK:JAK2 selectivity ratio (JAK2): C (C represents 1<Kd (JAK2): Kd (RCK)<10)
- Kd [1]: < 0.05 µM

Compound: Cc1cc(CNc2[nH]nc(Nc3ccc(N4CCS(=O)(=O)CC4)cc3)c2C(N)=O)cc(C)c1O [Compound 32, 3-((4-(1,1-dioxidothiomorpholino)phenyl)amino)-5-((4-hydroxy-3,5-dimethylbenzyl)amino)-1H-pyrazole-4-carboxamide]
- Kd (JAK3): 0.1 to 1 µM
- RCK:JAK3 selectivity ratio (JAK3): B (B represents 10<Kd (JAK3): Kd (RCK)<100)
- Kd (JAK2): 0.1 to 1 µM
- RCK:JAK2 selectivity ratio (JAK2): C (C represents 1<Kd (JAK2): Kd (RCK)<10)
- Kd [1]: < 0.05 µM

Compound: NC(=O)c1c(Nc2ccc(N3CCN(Cc4ccccc4)CC3)cc2)n[nH]c1NCc1ccc(O)cc1 [reference compound]
- Kd (JAK3): < 0.05 µM
- RCK:JAK3 selectivity ratio (JAK3): C (C represents 1<Kd (JAK3): Kd (RCK)<10)
- Kd (JAK2): < 0.05 µM
- RCK:JAK2 selectivity ratio (JAK2): D (D represents Kd(JAK2): Kd (RCK)<1)
- Kd [1]: < 0.05 µM

Compound: NC(=O)c1c(Nc2ccc(CN3CCCCC3)cc2)n[nH]c1NCc1ccc(O)cc1 [reference compound]
- Kd (JAK3): < 0.05 µM
- RCK:JAK3 selectivity ratio (JAK3): D (D represents Kd (JAK3): Kd(RCK)<1)
- Kd (JAK2): < 0.05 µM
- RCK:JAK2 selectivity ratio (JAK2): D (D represents Kd(JAK2): Kd (RCK)<1)
- Kd [1]: < 0.05 µM

Compound: Cc1cc(CNc2[nH]nc(Nc3ccc(N4CCN(C(=O)N5CCCC5)CC4)cc3)c2C(N)=O)cc(C)c1O [Compound 24, 5-((4-hydroxy-3,5-dimethylbenzyl)amino)-3-((4-(4-(pyrrolidine-1-carbonyl)piperazin-1-yl)phenyl)amino)-1H-pyrazole-4-carboxamide]
- Kd (JAK3): > 1 µM
- RCK:JAK3 selectivity ratio (JAK3): A (A represents Kd (JAK3): Kd (RCK)>100)
- Kd (JAK2): > 1 µM
- RCK:JAK2 selectivity ratio (JAK2): B (B represents 10<Kd(JAK2): Kd (RCK)<100)
- Kd [1]: < 0.05 µM

Compound: Cc1cc(Nc2n[nH]c(NCc3ccc(O)cc3)c2C(N)=O)ccc1N1CCN(C)CC1 [reference compound]
- Kd (JAK3): < 0.05 µM
- RCK:JAK3 selectivity ratio (JAK3): C (C represents 1<Kd (JAK3): Kd (RCK)<10)
- Kd (JAK2): < 0.05 µM
- RCK:JAK2 selectivity ratio (JAK2): C (C represents 1<Kd (JAK2): Kd (RCK)<10)
- Kd [1]: < 0.05 µM

Compound: Cc1cc(CNc2[nH]nc(Nc3ccc(N4C[C@@H](C)O[C@@H](C)C4)cc3)c2C(N)=O)cc(C)c1O [Compound 4, 3-((4-(2,6-dimethylmorpholino)phenyl)amino)-5-((4-hydroxy-3,5-dimethylbenzyl)amino)-1H-pyrazole-4-carboxamide]
- Kd (JAK3): > 1 µM
- RCK:JAK3 selectivity ratio (JAK3): B (B represents 10<Kd (JAK3): Kd (RCK)<100)
- Kd (JAK2): > 1 µM
- RCK:JAK2 selectivity ratio (JAK2): B (B represents 10<Kd(JAK2): Kd (RCK)<100)
- Kd [1]: 0.1 to 1 µM

Compound: Cc1cc(CNc2[nH]nc(Nc3ccc(N4CCC(N(C)C)CC4)cc3)c2C(N)=O)cc(C)c1O [Compound 36, 3-((4-(4-(dimethylamino)piperidin-1-yl)phenyl)amino)-5-((4-hydroxy-3,5-dimethylbenzyl)amino)-1H-pyrazole-4-carboxamide]
- Kd (JAK3): > 1 µM
- RCK:JAK3 selectivity ratio (JAK3): A (A represents Kd (JAK3): Kd (RCK)>100)
- Kd (JAK2): 0.1 to 1 µM
- RCK:JAK2 selectivity ratio (JAK2): B (B represents 10<Kd(JAK2): Kd (RCK)<100)
- Kd [1]: < 0.05 µM

Compound: NC(=O)c1c(Nc2ccc(-c3ccccn3)cc2)n[nH]c1NCc1ccc(O)cc1 [reference compound]
- Kd (JAK3): < 0.05 µM
- RCK:JAK3 selectivity ratio (JAK3): C (C represents 1<Kd (JAK3): Kd (RCK)<10)
- Kd (JAK2): < 0.05 µM
- RCK:JAK2 selectivity ratio (JAK2): D (D represents Kd(JAK2): Kd (RCK)<1)
- Kd [1]: < 0.05 µM

Compound: Cc1cc(CNc2[nH]nc(Nc3ccc(N4CCOCC4)nc3)c2C(N)=O)cc(C)c1O [Compound 7, 5-((4-hydroxy-3,5-dimethylbenzyl)amino)-3-((6-morpholinopyridin-3-yl)amino)-1H-pyrazole-4-carboxamide]
- Kd (JAK3): > 1 µM
- RCK:JAK3 selectivity ratio (JAK3): B (B represents 10<Kd (JAK3): Kd (RCK)<100)
- Kd (JAK2): 0.1 to 1 µM
- RCK:JAK2 selectivity ratio (JAK2): C (C represents 1<Kd (JAK2): Kd (RCK)<10)
- Kd [1]: 0.05 to 0.1 µM

Compound: N#CCc1ccc(Nc2n[nH]c(NCc3ccc(O)cc3)c2C(N)=O)cc1 [reference compound]
- Kd (JAK3): < 0.05 µM
- RCK:JAK3 selectivity ratio (JAK3): C (C represents 1<Kd (JAK3): Kd (RCK)<10)
- Kd (JAK2): < 0.05 µM
- RCK:JAK2 selectivity ratio (JAK2): D (D represents Kd(JAK2): Kd (RCK)<1)
- Kd [1]: < 0.05 µM

Compound: N#Cc1cccc(Nc2n[nH]c(NCc3ccc(O)cc3)c2C(N)=O)c1 [reference compound]
- Kd (JAK3): < 0.05 µM
- RCK:JAK3 selectivity ratio (JAK3): D (D represents Kd (JAK3): Kd(RCK)<1)
- Kd (JAK2): < 0.05 µM
- RCK:JAK2 selectivity ratio (JAK2): D (D represents Kd(JAK2): Kd (RCK)<1)
- Kd [1]: 0.05 to 0.1 µM

Compound: Cc1cc(CNc2[nH]nc(Nc3ccc(N4CCOCC4)c(Cl)c3)c2C(N)=O)cc(C)c1O [Compound 2, 3-((3-chloro-4-morpholinophenyl)amino)-5-((4-hydroxy-3,5-dimethylbenzyl)amino)-1H-pyrazole-4-carboxamide]
- Kd (JAK3): > 1 µM
- RCK:JAK3 selectivity ratio (JAK3): A (A represents Kd (JAK3): Kd (RCK)>100)
- Kd (JAK2): 0.1 to 1 µM
- RCK:JAK2 selectivity ratio (JAK2): B (B represents 10<Kd(JAK2): Kd (RCK)<100)
- Kd [1]: < 0.05 µM

Source: patent publication US9730914B2, “3,5-diaminopyrazole kinase inhibitors” (Axikin Pharmaceuticals, Inc., priority 2014, dated 2017)
